According to patent US20180327367A1, “MACROCYCLIC BROAD SPECTRUM ANTIBIOTICS” (priority 2015, published 2018):
≈ marks a conversion by molar mass, not a printed value.

Legend:
[1] = system: Escherichia coli MC4100 harboring the IMP4213 (E. coli IMP); test: microbe, parasite or virus in culture; type: cell-based; details: Escherichia coli, 22 h, read-out: MIC (μg/mL) E. coli IMP, E. coli MC4100 IMP4213, increased outer-membrane permeability; 35° C., 22 hours
In short: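 Colonies grown 20 hours at 35° C were suspended in cation-adjusted Mueller Hinton Broth with 0.002% Tween-80. Cells were then added to 2-fold compound dilutions starting at 4 or 0.5 μg/mL, at OD600 0.0005.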

[2] = system: Escherichia coli ATCC 25922; test: Minimum inhibitory concentration, broth micro-dilution (CLSI), E. coli; type: cell-based; details: Escherichia coli, ATCC25922, 22 h, E. coli ATCC 25922; 35° C., 22 hours; read-out: MIC (μg/mL) E. coli
[3] = target: T1, SpsB (Staphylococcus aureus signal peptidase) (Staphylococcus aureus, UniProt P0A070); test: cell-based; type: biochemical; details: SpsB IC50, whole-cell S. aureus (USA300 background, overexpressing SpsB) as SpsB source; fluorogenic peptide substrate, kinetic read 30 min
T1 construct: This assay uses a suspension of Staphylococcus aureus cells as a source of SpsB instead of recombinant SpsB protein; endogenous in cells; host or cells: S. aureus, USA300 background, overexpressing SpsB (whole-cell suspension from frozen pellets)
In short: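 Whole S. aureus cells (USA300, overexpressing SpsB) in PBS with MgCl2, CaCl2 and 0.1% Tween-80 served as enzyme source, mixed with 20 μM stock of (Dabcyl)βAla-KPAKAAE(Edans) substrate before use. Fluorescence (ex 340/em 490 nm) read kinetically over 30 min. IC50 from reaction rate versus 11-point inhibitor concentration.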

[4] = system: Methicillin Resistant Staphylococcus aureus strain USA 300, NRS384; test: Minimum inhibitory concentration, broth micro-dilution (CLSI), S. aureus; type: cell-based; details: Staphylococcus aureus, MRSA / NRS 384 / USA300, 22 h, MRSA USA 300 NRS384; 35° C., 22 hours; read-out: MIC (μg/mL) S. aureus
In short: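 Ten-point 2-fold series began at 4 μg/mL in protocol 2 and 0.5 μg/mL in protocol 3, in cation-adjusted MHB plus 0.002% Tween-80. Bacteria added to OD600 0.0005 final and incubated at 35° C for 22 hours per CLSI microdilution.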

T1 sequence (P0A070 whole entry): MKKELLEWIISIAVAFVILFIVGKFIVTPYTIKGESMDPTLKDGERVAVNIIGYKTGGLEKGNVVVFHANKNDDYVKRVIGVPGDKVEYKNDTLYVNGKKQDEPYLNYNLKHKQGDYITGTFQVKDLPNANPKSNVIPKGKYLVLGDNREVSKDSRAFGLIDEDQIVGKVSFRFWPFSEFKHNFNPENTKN

With CCCCCCCOc1ccc(C(=O)N[C@@H](CCN)C(=O)N(C)[C@@H]2C(=O)N[C@@H](C)C(=O)N[C@H](C(=O)NCC#N)Cc3ccc(OCCN)c(c3)-c3cc2ccc3OCCN)c(C)c1 [Compound 268] the MIC [1] was less than 0.0039 µg/mL, the MIC [2] was 0.22 µg/mL (≈ 0.253 µM) and the IC50 [3] was 860 pM. The MIC [4] was 0.035 µg/mL (≈ 0.0402 µM).

CCCCOc1ccc(C(=O)N[C@@H](CCN)C(=O)N(C)[C@@H]2C(=O)N[C@@H](C)C(=O)N[C@H](C(=O)NCC#N)Cc3ccc(OCCN)c(c3)-c3cc2ccc3OCCN)c(Cl)c1 [Compound 269] showed an MIC [1] of 0.023 µg/mL (≈ 0.0271 µM), an MIC [2] of 1 µg/mL (≈ 1.18 µM) and an IC50 [3] of 1200 pM. For the same compound, the MIC [4] was 0.25 µg/mL (≈ 0.295 µM).

In the case of CCCCCOc1ccc(C(=O)N[C@@H](CCN)C(=O)N(C)[C@@H]2C(=O)N[C@@H](C)C(=O)N[C@H](C(=O)NCC#N)Cc3ccc(OCCN)c(c3)-c3cc2ccc3OCCN)c(Cl)c1 [Compound 270], the MIC [1] is reported as 0.016 µg/mL (≈ 0.0186 µM), the MIC [2] is reported as 0.63 µg/mL (≈ 0.73 µM) and the IC50 [3] is reported as 890 pM. It also gave an MIC [4] of 0.094 µg/mL (≈ 0.109 µM).

Compound CCCCCCOc1ccc(C(=O)N[C@@H](CCN)C(=O)N(C)[C@@H]2C(=O)N[C@@H](C)C(=O)N[C@H](C(=O)NCC#N)Cc3ccc(OCCN)c(c3)-c3cc2ccc3OCCN)c(Cl)c1 [Compound 271] has an MIC [1] of 0.016 µg/mL (≈ 0.0183 µM), an MIC [2] of 0.31 µg/mL (≈ 0.354 µM) and an IC50 [3] of 1100 pM. The MIC [4] was 0.047 µg/mL (≈ 0.0536 µM).

In the case of CCCCCCCCOc1ccc(C(=O)N[C@@H](CCN)C(=O)N(C)[C@@H]2C(=O)N[C@@H](C)C(=O)N[C@H](C(=O)NCC#N)Cc3ccc(OCCN)c(c3)-c3cc2ccc3OCCN)c(Cl)c1 [Compound 272], the MIC [1] is reported as 0.0078 µg/mL (≈ 0.00862 µM), the MIC [2] is reported as 0.13 µg/mL (≈ 0.144 µM) and the IC50 [3] is reported as 700 pM. For the same compound, the MIC [4] was 0.047 µg/mL (≈ 0.052 µM).

Work on CCCCCCCOc1ccc(C(=O)N[C@@H](CCN)C(=O)N(C)[C@@H]2C(=O)N[C@@H](C)C(=O)N[C@H](C(=O)NCC#N)Cc3ccc(OCCN)c(c3)-c3cc2ccc3OCCN)c(C(F)(F)F)c1 [Compound 273] yielded an MIC [1] of 0.016 µg/mL (≈ 0.0173 µM), an MIC [2] of 0.5 µg/mL (≈ 0.541 µM) and an IC50 [3] of 600 pM. The MIC [4] was 0.031 µg/mL (≈ 0.0335 µM).

With Cc1cc(OCCC(C)C)ccc1C(=O)N[C@@H](CCN)C(=O)N(C)[C@@H]1C(=O)N[C@@H](C)C(=O)N[C@H](C(=O)NCC#N)Cc2ccc(OCCN)c(c2)-c2cc1ccc2OCCN [Compound 274] the MIC [1] was 0.02 µg/mL (≈ 0.0238 µM), the MIC [2] was 1.3 µg/mL (≈ 1.54 µM) and the IC50 [3] was 790 pM. The MIC [4] was 0.13 µg/mL (≈ 0.154 µM).

Compound Cc1cc(OCC2CCCCC2)ccc1C(=O)N[C@@H](CCN)C(=O)N(C)[C@@H]1C(=O)N[C@@H](C)C(=O)N[C@H](C(=O)NCC#N)Cc2ccc(OCCN)c(c2)-c2cc1ccc2OCCN [Compound 275] has an MIC [1] of 0.014 µg/mL (≈ 0.0161 µM), an MIC [2] of 0.38 µg/mL (≈ 0.438 µM) and an IC50 [3] of 550 pM. It also gave an MIC [4] of 0.063 µg/mL (≈ 0.0726 µM).

Cc1cc(OCC(C)C)ccc1C(=O)N[C@@H](CCN)C(=O)N(C)[C@@H]1C(=O)N[C@@H](C)C(=O)N[C@H](C(=O)NCC#N)Cc2ccc(OCCN)c(c2)-c2cc1ccc2OCCN [Compound 276] gave an MIC [1] of 0.031 µg/mL (≈ 0.0374 µM), an MIC [2] of 2 µg/mL (≈ 2.42 µM) and an IC50 [3] of 1800 pM. It also gave an MIC [4] of 0.58 µg/mL (≈ 0.7 µM).

Cc1cc(OCCC(C)(C)C)ccc1C(=O)N[C@@H](CCN)C(=O)N(C)[C@@H]1C(=O)N[C@@H](C)C(=O)N[C@H](C(=O)NCC#N)Cc2ccc(OCCN)c(c2)-c2cc1ccc2OCCN [Compound 277] gave an MIC [1] of 0.012 µg/mL (≈ 0.014 µM), an MIC [2] of 1 µg/mL (≈ 1.17 µM) and an IC50 [3] of 1100 pM. It also gave an MIC [4] of 0.063 µg/mL (≈ 0.0736 µM).

Cc1cc(OCC(C)(C)C)ccc1C(=O)N[C@@H](CCN)C(=O)N(C)[C@@H]1C(=O)N[C@@H](C)C(=O)N[C@H](C(=O)NCC#N)Cc2ccc(OCCN)c(c2)-c2cc1ccc2OCCN [Compound 280] showed an MIC [1] of 0.027 µg/mL (≈ 0.0321 µM), an MIC [2] of 0.63 µg/mL (≈ 0.748 µM) and an IC50 [3] of 2000 pM. The MIC [4] was 0.13 µg/mL (≈ 0.154 µM).

In the case of CCCCCCCOc1ccc(C(=O)N[C@@H](CCCN)C(=O)N(C)[C@@H]2C(=O)N[C@@H](C)C(=O)N[C@H](C(=O)NCC#N)Cc3ccc(OCCN)c(c3)-c3cc2ccc3OCCN)c(C)c1 [Compound 281], the MIC [1] is reported as 0.0078 µg/mL (≈ 0.00882 µM), the MIC [2] is reported as 0.25 µg/mL (≈ 0.283 µM) and the IC50 [3] is reported as 750 pM. The MIC [4] was 0.023 µg/mL (≈ 0.026 µM).

With CCCCCCCOc1ccc(C(=O)N[C@@H](CCCN)C(=O)N(C)[C@@H]2C(=O)N[C@@H](C)C(=O)N[C@H](C(=O)NCC#N)Cc3ccc(OCCN)c(c3)-c3cc2ccc3OCCN)c(Cl)c1 [Compound 282] the MIC [1] was 0.0078 µg/mL (≈ 0.00862 µM), the MIC [2] was 0.25 µg/mL (≈ 0.276 µM) and the IC50 [3] was 710 pM. The MIC [4] was 0.016 µg/mL (≈ 0.0177 µM).

CCCCC#CCOc1ccc(C(=O)N[C@@H](CCN)C(=O)N(C)[C@@H]2C(=O)N[C@@H](C)C(=O)N[C@H](C(=O)NCC#N)Cc3ccc(OCCN)c(c3)-c3cc2ccc3OCCN)c(Cl)c1 [Compound 283] was tested, and the MIC [1] was 0.012 µg/mL (≈ 0.0135 µM), the MIC [2] was 1 µg/mL (≈ 1.13 µM) and the IC50 [3] was 870 pM. It also gave an MIC [4] of 0.063 µg/mL (≈ 0.0711 µM).
